# In US6031073A, “Cyclic polypeptides comprising a thioether linkage and methods for their preparation” (La Jolla Pharmaceutical Company, priority 1997, dated 2000):
# Numbered stars: 1 amine (or outer) side, 2 acyl side, 3 side chain; on linkers, the order of the positions; unused ones are H or OH. Bridge positions count the residues as written; N and C are the ends. Square brackets hold non-standard residues; d marks the D form. Peptide text beside a SMILES is read from it. Abu(4-yl) = O=C([C@H](CC[*:3])N[*:1])[*:2]; hCys = N[C@@H](CCS)C(=O)O
# Assays:
# [1] = molecular target: anticardiolipin antibody (serum of patient ACA-6501); assay: competitive ELISA, binding of patient ACA-6501 serum to cardiolipin/β2-GPI coated plate; set-up: species or system human; conditions: for IC50: amount of peptide that inhibited the human serum's binding by 50%, serum of patient ACA-6501 (GPL score 1500)
# Description: (§1) The binding affinities of a number of the thioether cyclic polypeptides of the present invention to anticardiolipin antibody were determined by a competitive ELISA (i.e., enzyme-linked immunosorbent assay) and compared with binding affinities of the corresponding disulfide cyclic polypeptides (e.g., 3G3, 2G3, and G3).
# (§2) Of 96 wells of a flat-bottom Immulon I microtiter plate (Dynatech Labs, Alexandria, Va.), 94 wells were coated with […] cardiolipin per well in 30 mL, of ethanol. The remaining two wells were used as controls and each received 30 mL, of ethanol. After overnight evaporation at 4° C., the plate was blocked for 2 hours at room temperature with 200 mL of 5% (w/v) fish gelatin in phosphate buffered saline (i.e., PBS, 0.15 M NaCl and 0.01 M Na2 HPO4 at pH 7.2). The plate was washed five times in Tris buffered saline (i.e., TBS, 0.15 M NaCl and 0.05 M Tris-HCl at pH 8.5). Then, β2 -glycoprotein I (i.e., β2 -GPI) was added as […] of 2.3% (v/v) IgG-depleted human serum (Sigma Chemical Co.) and incubated for 2 hours at room temperature.
# (§3) During this incubation, peptide solutions (around 2 mg/mL) were prepared by dissolving thioether cyclic peptides in 3% fish gelatin in TBS. The serums of patient ACA-6501, who has a GPL (i.e., IgG Phospholipid) score of 1500, and patient ACA-6701, who has a GPL score of 102, were diluted about 40-fold in 3% fish gelatin in TBS-PBS (1:1). Variable amounts of each of peptides were combined with 22 mL of each of the diluted human serums and then made up to the final volume of 220 mL with 3% fish gelatin in TBS-PBS (1:1). For each peptide, at least four peptide concentrations were employed and each data point was determined in duplicate.
# (§4) After 5 washes with TFBS, 100 mL of the peptide/human serum solution was added and the microplate was agitated at 40 rpm in an orbital shaker (American Scientific, Rotator V) for one hour at room temperature. The plate was washed extensively with TBS (5 times) and 100 mL of diluted (1/1000) alkaline phosphatase-conjugated goat anti-human IgG (Zymed, South San Francisco, Calif.) in 0.5% (w/v) BSA-TBS was added to each well (i.e., bovine serum albumin, BSA). The plate was then incubated for one hour at room temperature followed by addition of […]/well of PPMP solution (3 g/L phenolphthalein monophosphate plus 26.7 g/L 2-amino-2-methyl-1-propanol in water). The plate was allowed to develop at room temperature for 21 min and the reaction was stopped by adding 50 mL of 0.2 M Na2 HPO4 (Mallinckrodt) to each well. Blanks consisted of protein-coated wells that received similar treatment except human serum was not added to these wells. The plate was read at 550 nm using a microplate reader (Bio-Tek Instruments, Model EL 311).
# (§5) Absorbance vs. amount of peptide added was plotted using Graph Pad Prism (Graph Pad Software, Inc.). The amount of peptide that inhibited the human serum's binding by 50%, known as IC50, was calculated from the graph at the intersection of half-maximal absorbance with amount of peptide added.
# [2] = molecular target: anticardiolipin antibody (serum of patient ACA-6701); assay: competitive ELISA, binding of patient ACA-6701 serum to cardiolipin/β2-GPI coated plate; conditions: amount of peptide that inhibited the human serum's binding by 50%; serum of patient ACA-6701 (GPL score 102)
# Description: as §1, §2, §3, §4, §5
SMILES,IC50 [1] [µM],IC50 [2] [µM],biological activity in comparison with the corresponding disulfide cyclic peptide ([1]; general statement on Table 1 (sera ACA-6501 and ACA-6701)),activity relative to disulfide peptide G3 ([1]; patient ACA-6501)
CC(C)C[C@@H]1NC(=O)[C@H](CCCCN)NC(=O)CNC(=O)[C@H](CC(C)C)NC(=O)[C@H](C(C)C)NC(=O)CNC(=O)[C@H](CC(C)C)NC(=O)[C@@H](N)CSCC[C@@H](C(N)=O)NC1=O [G3-METE] (H-CLGVLGKL[Abu(4-yl)]-NH2; thioether 1-9),104,36,–,–
CC(C)C[C@@H]1NC(=O)[C@H](CCCCN)NC(=O)CNC(=O)[C@H](CC(C)C)NC(=O)[C@H](C(C)C)NC(=O)CNC(=O)[C@H](CC(C)C)NC(=O)[C@@H](N)CCSC[C@@H](C(N)=O)NC1=O [G3-EMTE] (H-[Abu(4-yl)]LGVLGKLC-NH2; thioether 1-9),52,34,more active than the disulfide peptide G3,about twice as active as G3
"CC(C)C[C@@H]1NC(=O)[C@H](CCCCN)NC(=O)CNC(=O)[C@H](CC(C)C)NC(=O)[C@H](C(C)C)NC(=O)CNC(=O)[C@H](CC(C)C)NC(=O)[C@H](NC(=O)[C@@H]2CCCN2C(=O)CN)CSCC[C@@H](C(=O)N2CCC[C@H]2C(=O)NCC(=O)O)NC1=O (single isomer, unassigned) [d-2G3-METE]",100,436,–,–
CC(C)C[C@@H]1NC(=O)C(NC(=O)[C@@H]2CCCN2C(=O)CNC(=O)[C@H](C)N)CSC[C@@H](C(=O)N2CCC[C@H]2C(=O)NCC(=O)O)NC(=O)[C@H](CC(C)C)NC(=O)[C@H](CCCCN)NC(=O)CNC(=O)[C@H](CC(C)C)NC(=O)[C@H](C(C)C)NC(=O)CNC1=O (stereo partly drawn) [3G3-MMTE],~1050,~1050,–,–
"CC(C)C[C@@H]1NC(=O)[C@@H](NC(=O)[C@@H]2CCCN2C(=O)CN)CSCC[C@@H](C(=O)N2CCC[C@H]2C(=O)NCC(=O)O)NC(=O)[C@H](CC(C)C)NC(=O)[C@H](CCCCN)NC(=O)CNC(=O)[C@H](CC(C)C)NC(=O)[C@H](C(C)C)NC(=O)CNC1=O (single isomer, unassigned) [l-2G3-METE]",209,486,–,–
CC(C)C[C@@H]1NC(=O)C(N)CSC[C@@H](C(N)=O)NC(=O)[C@H](CC(C)C)NC(=O)[C@H](CCCCN)NC(=O)CNC(=O)[C@H](CC(C)C)NC(=O)[C@H](C(C)C)NC(=O)CNC1=O (stereo partly drawn) [G3-MMTE],126,57,–,–
CC(C)C[C@@H]1NC(=O)C(NC(=O)[C@@H]2CCCN2C(=O)CN)CSC[C@@H](C(=O)N2CCC[C@H]2C(=O)NCC(=O)O)NC(=O)[C@H](CC(C)C)NC(=O)[C@H](CCCCN)NC(=O)CNC(=O)[C@H](CC(C)C)NC(=O)[C@H](C(C)C)NC(=O)CNC1=O (stereo partly drawn) [2G3-MMTE],> 678,> 678,–,–
CC(C)C[C@@H]1NC(=O)[C@H](CCCCN)NC(=O)CNC(=O)[C@H](CC(C)C)NC(=O)[C@H](C(C)C)NC(=O)CNC(=O)[C@H](CC(C)C)NC(=O)[C@@H](N)CCSCC[C@@H](C(N)=O)NC1=O [G3-EETE] (H-[hCys]LGVLGKL[Abu(4-yl)]-NH2; thioether 1-9),89,40,–,–
